Results from paper PMC6298432 (ACS chemical biology, 2017).

Columns and labels:
E. coli = experiment: Historical phenotypic screen for inhibitors of E. coli growth; format: cell-based; details: active = ≥80% inhibition of bacterial growth
[1] = system: FolA (dihydrofolate reductase, DHFR); experiment: ALIS binding to FolA; design: species or system E. coli
[2] = system: M. tuberculosis ATCC 27294; experiment: M. tuberculosis growth inhibition assay; format: cell-based
[3] = system: Mycobacterium tuberculosis (Mtb); format: cell-based; details: active = ≥80% inhibition of bacterial growth
[4] = system: mouse dihydrofolate reductase; details: cited from earlier work
[5] = target: FolA (dihydrofolate reductase, DHFR); details: cited from earlier work

Structure (SMILES)	Activity in E. coli growth phenotypic screen (E. coli)	Binding to FolA detected in ALIS [1]	Inhibition of Mtb growth (antibacterial activity) [2]	other results
COc1cc(Cc2cnc(N)nc2N)cc(OC)c1OC [Trimethoprim]	active	–	–	–
COc1cc(Cc2cnc(N)nc2N)cc(OC)c1Br [brodimoprim]	–	failure to detect their binding	–	–
C#CCN(Cc1cnc2nc(N)nc(N)c2n1)c1ccc(C(=O)N[C@@H](CCC(=O)O)C(=O)O)cc1 [10-PAP, 10-propargylaminopterin]	–	–	retained bioactivity	Activity in Mtb growth phenotypic screen [3]: active; Inhibition of mouse dihydrofolate reductase [4]: inhibit
COc1ccc(Cc2cnc(N)nc2N)cc1OC [Diaveridine]	active	binders detected	–	IC50 for FolA [5]: nanomolar
CN(Cc1cnc2nc(N)nc(N)c2n1)c1ccc(C(=O)N[C@@H](CCC(=O)O)C(=O)O)cc1 [Methotrexate]	–	–	no efficacy	–
